Reference: article PMC9322451 (Clinical Pharmacology in Drug Development, 2022)
Read-outs that look alike come from different tables or passages of the source.

Assays:
[1] = Phase 1 part B: PK of single 40 mg oral dose, fasted vs fed (food effect); format: in vivo, human; conditions: for AUC(0-inf) / AUC(0-t) / Cmax / half-life / Tmax: human, plasma
Protocol: Participants were admitted to the clinical unit the day before doses were administered on days 1 and 8 and discharged on days 2 and 9, after collection of the 36‐hour postdose PK sample. The washout period between doses was 7 days. […] After dosing, participants were required to remain upright for at least 2 hours and refrain from food and drink for at least 4 hours; water was allowed after 2 hours.
For part B, blood sampling for PK assessments was performed following single‐dose administration on days 1 and 8 at 0 (predose), 0.25, 0.5, 1, 1.5, 2, 3, 3.5, 4, 6, 8, 10, 12, 24, 36, and 72 hours after dosing. PK parameters included Cmax, tmax, AUClast, AUC∞, CL/F, apparent volume of distribution after drug administration, and t1/2.
The assay range was 0.250 to 150 ng/mL, with overall precision and accuracy for intra‐ and interassays of 2.2% to 5.9% and −2.7% to 0.3%, respectively.
PK parameters were generated using noncompartmental analysis and were based on the PK population, which included all participants who received at least 1 dose of assigned treatment (safety population) and had evaluable Cmax and AUC parameters without significant protocol deviations. For part B, the PK population included participants who completed both treatment periods and had sufficient concentration data from both periods to fully derive the PK parameters.
Estimates and 90% CIs for the differences between treatment means were computed and converted to ratios by antilog transformation. Results for the geometric mean ratio of treatments (fasted vs fed) were tabulated for Cmax, AUClast, and AUC∞.

CYP3A4/5 = test system: CYP3A4/5; set-up: method as in unpublished data; conditions: ref unpublished data, read-out: half maximal inhibitory concentration; cited from earlier work
CYP1A2 = test system: CYP1A2; set-up: method as in unpublished data; conditions: ref unpublished data; cited from earlier work
CYP3A4 = test system: CYP3A4; set-up: method as in unpublished data; conditions: ref unpublished data; cited from earlier work
neutrophil elastase = test system: neutrophil elastase; set-up: method as in PMID 29484635; conditions: cited from earlier work
[2] = oral, 40 mg, Japanese n=9, fasted, least squares mean
[3] = oral, 40 mg, Japanese n=9, fed, least squares mean
[4] = oral, 40 mg, White n=10, fasted, least squares mean
[5] = oral, 40 mg, White n=10, fed, least squares mean
[6] = po, 40 mg, 40 mg single oral dose, Japanese, fasted, mean (CV%)
[7] = po, 40 mg, 40 mg single oral dose, Japanese, fed, mean (CV%)
[8] = po, 40 mg, 40 mg single oral dose, White, fasted, mean (CV%)
[9] = po, 40 mg, 40 mg single oral dose, White, fed, mean (CV%)
[10] = po, 40 mg, 40 mg single oral, fasted, Japanese
[11] = po, 40 mg, 40 mg single oral, fasted, White

## Cn1c(=O)oc2ccc(-c3ccc(C[C@@H](C#N)NC(=O)[C@@H]4CNCCCO4)cc3)cc21 [Brensocatib]
[1]; 40 mg
  effect of food on exposure: no effect
[1]; 40 mg single oral, fasted, Japanese
  CL/F: 7.7 L/h
[1]; 40 mg single oral, fasted, White
  CL/F: 6.5 L/h
[1]; 40 mg, Japanese n=9
  AUClast GMR (fed/fasted), % (90% CI): 98.4 (94.4‐102.5) %
  AUC∞ GMR (fed/fasted), % (90% CI): 99.2 (95.7‐102.8) %
  Cmax GMR (fed/fasted), % (90% CI): 82.4 (67.9‐99.9) %
[1]; 40 mg, Japanese participants
  Cmax lower in the fed state: 17.6%
[1]; 40 mg, White n=10
  AUClast GMR (fed/fasted), % (90% CI): 101.3 (96.8‐106.0) %
  AUC∞ GMR (fed/fasted), % (90% CI): 99.6 (94.6‐104.9) %
  Cmax GMR (fed/fasted), % (90% CI): 101.2 (81.4‐125.9) %
[1]; [2]
  AUC(0-inf): 5270 ng·h/mL
  AUC(0-t): 4920 ng·h/mL
  Cmax: 356 ng/mL
[1]; [3]
  AUC(0-inf): 5230 ng·h/mL
  AUC(0-t): 4840 ng·h/mL
  Cmax: 293 ng/mL
[1]; [4]
  AUC(0-inf): 6200 ng·h/mL
  AUC(0-t): 5150 ng·h/mL
  Cmax: 269 ng/mL
[1]; [5]
  AUC(0-inf): 6180 ng·h/mL
  AUC(0-t): 5210 ng·h/mL
  Cmax: 272 ng/mL
[1]; oral, 40 mg, fasted and fed, White, read-out: Mean t1/2 (converted)
  half-life: 27 to 28 h
[1]; oral, 40 mg, fasted, Japanese, read-out: median Tmax
  Tmax: 1.3 h
[1]; oral, 40 mg, fasted, White, read-out: median Tmax
  Tmax: 1.3 h
[1]; oral, 40 mg, fed, Japanese, read-out: Mean t1/2 (converted)
  half-life: 18.4 h
[1]; oral, 40 mg, fed, Japanese, read-out: median Tmax
  Tmax: 3 h
[1]; oral, 40 mg, fed, White, read-out: median Tmax
  Tmax: 2 h
[1]; [6]
  AUC(0-inf): 5470 ng·h/mL
  AUC(0-t): 5010 ng·h/mL
  Cmax: 352 ng/mL
[1]; po, 40 mg, 40 mg single oral dose, Japanese, fasted, mean (CV%), read-out: t1/2 (converted)
  half-life: 19.3 h
[1]; po, 40 mg, 40 mg single oral dose, Japanese, fasted, median (range), read-out: Tmax
  Tmax: 1.27 h
[1]; [7]
  AUC(0-inf): 5490 ng·h/mL
  AUC(0-t): 4980 ng·h/mL
  Cmax: 297 ng/mL
[1]; po, 40 mg, 40 mg single oral dose, Japanese, fed, mean (CV%), read-out: t1/2 (converted)
  half-life: 19.4 h
[1]; po, 40 mg, 40 mg single oral dose, Japanese, fed, median (range), read-out: Tmax
  Tmax: 3 h
[1]; [8]
  AUC(0-inf): 6680 ng·h/mL
  AUC(0-t): 5480 ng·h/mL
  Cmax: 301 ng/mL
[1]; po, 40 mg, 40 mg single oral dose, White, fasted, mean (CV%), read-out: t1/2 (converted)
  half-life: 28.9 h
[1]; po, 40 mg, 40 mg single oral dose, White, fasted, median (range), read-out: Tmax
  Tmax: 1.25 h
[1]; [9]
  AUC(0-inf): 6500 ng·h/mL
  AUC(0-t): 5470 ng·h/mL
  Cmax: 302 ng/mL
[1]; po, 40 mg, 40 mg single oral dose, White, fed, mean (CV%), read-out: t1/2 (converted)
  half-life: 27.5 h
[1]; po, 40 mg, 40 mg single oral dose, White, fed, median (range), read-out: Tmax
  Tmax: 2 h
[1]; [10]
  AUC(0-inf): 5180 ng·h/mL
  AUC(0-t): 4820 ng·h/mL
  Cmax: 338 ng/mL
[1]; po, 40 mg, 40 mg single oral, fasted, Japanese, read-out: Elimination t1/2 (converted)
  half-life: 18.7 h
[1]; [11]
  AUC(0-inf): 6200 ng·h/mL
  AUC(0-t): 5150 ng·h/mL
  Cmax: 269 ng/mL
[1]; po, 40 mg, 40 mg single oral, fasted, White, read-out: Elimination t1/2 (converted)
  half-life: 28 h
[1]; po, 40 mg, 40 mg single oral, fasted, both Japanese and White participants, read-out: Tmax
  Tmax: 1.3 h
CYP3A4/5
  IC50: > 30 µM
CYP1A2
  CYP induction (significant inducer or not): not a significant
CYP3A4
  CYP induction (significant inducer or not): not a significant
Neutrophil elastase
  inhibition of the activity of neutrophil elastase in blood: exposure‐dependent
